Measured values taken from US9994590B2, “Substituted [1,2,4]triazolo[1,5-a]pyrazines as phosphodiesterase inhibitors” (Sunovion Pharamaceuticals Inc., priority 2012, dated 2018).

Target: recombinant human PDE-10 enzyme (human PDE-10A) (Homo sapiens (Human), UniProt Q9Y233)
Assay: human PDE-10 inhibition assay (Molecular Devices IMAP PDE Fluorescence Polarization, enzyme assay IC50)
Format: biochemical
Settings: Fluorescein-labeled cAMP/cGMP substrate, 40-minute incubation at 37° C.
Protocol: In one embodiment, the compounds provided herein were assayed for their ability to inhibit human PDE-10A. In one embodiment, the activities of the compounds were determined using the Molecular Devices IMAP PDE Fluorescence Polarization assay using recombinant human PDE-10 enzyme expressed in a baculoviral system. Briefly, 10 μL of a compound (0.2 nM-20 μM) was added to either a 96-well half area black plate or a 384-well black plate along with 10 μL of Fluorescein-labeled cAMP/cGMP substrate as per manufacturer's instructions and 10 μL of PDE enzyme (activity 0.1 U). Following a 40-minute incubation at 37° C., 60 μL of IMAP binding reagent was added. The plate was then read on a Perkin Elmer Victor (480-535 nm). The data was analyzed using Prism Software (GraphPad Inc, San Diego, Calif.).

recombinant human PDE-10 enzyme (human PDE-10A), sequence (Q9Y233 whole entry): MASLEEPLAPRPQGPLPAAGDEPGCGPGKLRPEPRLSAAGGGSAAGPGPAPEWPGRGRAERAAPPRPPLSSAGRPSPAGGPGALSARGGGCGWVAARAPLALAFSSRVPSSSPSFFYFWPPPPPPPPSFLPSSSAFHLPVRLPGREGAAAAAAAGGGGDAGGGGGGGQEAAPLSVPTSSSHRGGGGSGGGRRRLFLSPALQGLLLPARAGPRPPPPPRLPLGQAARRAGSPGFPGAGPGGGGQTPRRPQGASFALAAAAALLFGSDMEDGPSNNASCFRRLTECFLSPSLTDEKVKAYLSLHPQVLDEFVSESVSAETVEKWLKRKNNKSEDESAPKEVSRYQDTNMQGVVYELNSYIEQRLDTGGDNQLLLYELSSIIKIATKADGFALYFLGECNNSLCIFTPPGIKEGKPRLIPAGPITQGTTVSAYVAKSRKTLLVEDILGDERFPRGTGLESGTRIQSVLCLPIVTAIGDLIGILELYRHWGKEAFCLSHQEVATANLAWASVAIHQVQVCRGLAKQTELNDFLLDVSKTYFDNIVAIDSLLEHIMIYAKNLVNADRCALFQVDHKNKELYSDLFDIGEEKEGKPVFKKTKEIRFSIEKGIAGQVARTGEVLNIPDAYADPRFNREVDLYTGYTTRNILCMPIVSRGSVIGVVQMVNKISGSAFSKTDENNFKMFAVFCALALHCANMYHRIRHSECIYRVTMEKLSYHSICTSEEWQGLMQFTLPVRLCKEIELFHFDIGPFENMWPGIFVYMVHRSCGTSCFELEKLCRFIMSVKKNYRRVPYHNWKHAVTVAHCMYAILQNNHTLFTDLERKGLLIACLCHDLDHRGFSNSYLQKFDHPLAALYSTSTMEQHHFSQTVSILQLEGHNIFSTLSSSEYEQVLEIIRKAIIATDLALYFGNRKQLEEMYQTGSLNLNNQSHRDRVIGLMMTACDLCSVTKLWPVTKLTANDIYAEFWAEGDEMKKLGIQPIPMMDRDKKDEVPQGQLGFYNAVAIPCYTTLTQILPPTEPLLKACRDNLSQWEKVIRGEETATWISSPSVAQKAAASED

SMILES	IC50 [nM]
Cc1ccn2c(C)c(C3CC3c3cn4ccc(F)cc4n3)nc2c1 (stereo not shown) [Compound 7, 2-(2-(7-Fluoroimidazo[1,2-a]pyridin-2-yl)cyclopropyl)-3,7-dimethylimidazo[1,2-a]pyridine]	> 500
COc1ccn2cc(C3CC3c3nc4c(C)ncc(C)n4n3)nc2c1C (stereo not shown) [Compound 2, 2-(2-(7-Methoxy-8-methylimidazo[1,2-a]pyridin-2-yl)cyclopropyl)-5,8-dimethyl-[1,2,4]triazolo[1,5-a]pyrazine]	> 500
Cc1ncc(C)n2nc(C3CCC3c3cn4ccc5c(c4n3)OCCO5)nc12 (racemic) [Compound 38, (±)-9-(2-(5,8-dimethyl-[1,2,4]triazolo[1,5-a]pyrazin-2-yl)cyclobutyl)-2,3-dihydro-[1,4]dioxino[2,3-c]imidazo[1,2-a]pyridine]	100 to 500
CCOc1cccn2c(C)c(C3CC3c3nc4c(C)ncc(C)n4n3)nc12 (racemic) [Compound 32, (±)-2-(2-(8-ethoxy-3-methylimidazo[1,2-a]pyridin-2-yl)cyclopropyl)-5,8-dimethyl-[1,2,4]triazolo[1,5-a]pyrazine]	10 to 100
Cc1ncc(C)n2nc([C@H]3C[C@@H]3c3nc4c5cccnc5ccc4n3C)nc12 [Compound 28]	100 to 500
Cn1c(C2CCC2c2nc3c4cccnc4ccc3n2C)nc2c3cccnc3ccc21 (stereo not shown) [Compound 25, 1,2-Bis(3-methyl-3H-imidazo[4,5-f]quinolin-2-yl)cyclobutane]	> 500
Fc1ccn2cc(C3CC3c3cn4ccc(F)cc4n3)nc2c1 (stereo not shown) [Compound 9]	> 500
COc1cccn2c(F)c([C@@H]3C[C@H]3c3nc4c(C)ncc(C)n4n3)nc12 (single isomer, unassigned) [Compound 57, 2-(2-(3-fluoro-8-methoxyimidazo[1,2-a]pyridin-2-yl)cyclopropyl)-5,8-dimethyl-[1,2,4]triazolo[1,5-a]pyrazine]	10 to 100
Cc1ncc(C)n2nc([C@@H]3C[C@H]3c3nc4c5cccnc5ccn4c3C)nc12 (single isomer, unassigned) [Compound 27]	≤ 10
Cn1c(C2CC2c2ccc3ccccc3n2)nc2c3cccnc3ccc21 (stereo not shown) [Compound 20, 3-Methyl-2-(2-(quinolin-2-yl)cyclopropyl)-3H-imidazo[4,5-f]quinoline]	100 to 500
Fc1ccn2cc(C3CCC3c3cn4cccc(Cl)c4n3)nc2c1 (racemic) [Compound 58, (±)-8-chloro-2-(2-(7-fluoroimidazo[1,2-a]pyridin-2-yl)cyclobutyl)imidazo[1,2-a]pyridine]	> 500
COc1ccn2cc(C3CC3c3nc4c(C)ncc(C)n4n3)nc2c1 (stereo not shown) [Compound 16]	> 500
Cc1ncc(C)n2nc([C@H]3C[C@@H]3c3nc4c5cccnc5ccn4c3C)nc12 (single isomer, unassigned) [Compound 26]	100 to 500
Cc1cc2nc(C3CC3c3nc4c(C)ncc(C)n4n3)cn2cc1F (stereo not shown) [Compound 18]	> 500
COc1cccn2c(F)c([C@@H]3C[C@H]3c3nc4c(C)ncc(C)n4n3)nc12 (single isomer, unassigned) [Compound 56, 2-(2-(3-fluoro-8-methoxyimidazo[1,2-a]pyridin-2-yl)cyclopropyl)-5,8-dimethyl-[1,2,4]triazolo[1,5-a]pyrazine]	> 500
Cc1cccn2cc(C3CC3c3cn4cccc(C)c4n3)nc12 (stereo not shown) [Compound 8, 1,2-Bis(8-methylimidazo[1,2-a]pyridin-2-yl)cyclopropane]	> 500
CCOc1ccn2c(C)c(C3CC3c3nc4c(C)ncc(C)n4n3)nc2c1 (stereo not shown) [Compound 14]	> 500
Cn1c([C@H]2C[C@@H]2c2ccc3ccccc3n2)nc2c3cccnc3ccc21 (single isomer, unassigned) [Compound 21]	10 to 100
Cc1ncc(C)n2nc(C3CC3c3nc4c5c(ccn4c3F)OCCO5)nc12 (racemic) [Compound 48, (±)-9-(2-(5,8-dimethyl-[1,2,4]triazolo[1,5-a]pyrazin-2-yl)cyclopropyl)-8-fluoro-2,3-dihydro-[1,4]dioxino[2,3-c]imidazo[1,2-a]pyridine]	10 to 100
